Measured values as given in patent US11976066B1 (priority 2023, dated 2024).
In brackets after ≈: the same amount, converted by molar mass.

What follows are compounds tested on multidrug-resistant (MDR) strains of Mycobacterium tuberculosis (assay: microbe, parasite or virus in culture). Settings: 192 h, read-out: MIC MDR-TB, MDR strains, REMA, 8 days incubation at 37° C, Middlebrook 7H9 broth.
Assay type: cell-based

Point of comparison: `CCOC(=O)c1cc(C(=O)c2ccc(Br)cc2)n2ccc(N)cc12` [Compound 3e, Ethyl 7-amino-3-(4-bromobenzoyl)indolizine-1-carboxylate], MIC ~64 µg/mL (≈ 165 µM). Against it:
- CCOC(=O)c1cc(C(=O)c2ccc(F)cc2)n2ccc(N)cc12 [Compound 3a, Ethyl 7-amino-3-(4-fluorobenzoyl)indolizine-1-carboxylate] — 2-fold lower, 32 µg/mL (≈ 98.1 µM)
- CCOC(=O)c1cc(C(=O)c2ccccc2[N+](=O)[O-])n2ccc(N)cc12 [Compound 3b, Ethyl 7-amino-3-(2-nitrobenzoyl)indolizine-1-carboxylate] — 4-fold lower, ~16 µg/mL (≈ 45.3 µM)
- COC(=O)c1c(C(=O)OC)c2cc(N)ccn2c1C(=O)c1ccc(OC)cc1 [Compound 3d, Dimethyl 7-amino-3-(4-methoxybenzoyl)indolizine-1,2-dicarboxylate] — 2-fold lower, ~32 µg/mL (≈ 83.7 µM)
